# Source: patent US9079858B2, “Rock kinase inhibitors” (Amakem NV, priority 2011, dated 2015)
# Columns and labels:
# human hepatocytes = assay: Stability assay in human hepatocytes; format: in vitro ADME; conditions: 1 μM
# Experimental: Compounds are incubated at a concentration of 1 μM with human hepatocytes (2 10^6 cells/ml in buffer solution). At fixed time points (ex: 1, 30, 60 & 120 minutes), an incubation mixture (200 μl) is cooled down on ice and 100 μl of acetonitrile is added. After vortex-mixing, the sample is centrifuged for 5 minutes at 16000 rpm. The remnant of compound in each sample is determined by LC-PDA-MS/MS analysis and half-life of the compound is subsequently calculated. Formation of the acid metabolite resulting from ester hydrolysis can be performed simultaneously. Peak areas for appearance of the acid are first recorded, and the corresponding concentrations are then back-calculated from calibration curve.
# When evaluated under such conditions, compounds of the invention are rapidly degraded in the corresponding acid (primary metabolite).
# [1] = Stability assay in rabbit aqueous humor; format: in vitro ADME; conditions: 1 μM in rabbit aqueous humor; for half-life at 1 μM: read-out: t½ Rabbit AH
# Experimental: (§1) Compounds are incubated at a concentration of 1 μM in rabbit aqueous humor (AH) or rabbit vitreous (VH). Samples are taken at fixed time points and the remnant of compound is determined by LC-MS/MS after protein precipitation.
# [2] = Stability assay in rabbit vitreous humor; format: in vitro ADME; conditions: 1 μM in rabbit vitreous; for half-life at 1 μM: rabbit vitreous humor, read-out: t½ Rabbit VH
# Experimental: as §1
# [3] = Pharmacokinetics after intravenous and oral administration in mice; format: in vivo, male CD-1 mice
# Experimental: The bioavailability of compound 1 was evaluated after intravenous and oral dosing in male CD-1 mice. The compound was dosed at 0.1 mg/kg intravenously and 1 mg/kg orally. Plasma levels were determined by LC-MS/MS and pharmacokinetic parameters were estimated by a non-compartmental model using WinNonlin v5.2.1 software.
structure (smiles),measurement,setting,value
"COC(=O)c1ccc(NC(=O)c2cccc(-c3cc(C(=O)Nc4ccncc4F)ccc3CN)c2)cc1 [Compound 1, methyl 4-({3-[2-(aminomethyl)-5-[(3-fluoropyridin-4-yl)carbamoyl]phenyl]phenyl}amido)benzoate]",t1/2 in human hepatocytes,human hepatocytes,0.233 h
same,% remaining,human hepatocytes; time 1 min,100.0%
same,% remaining,human hepatocytes; time 30 min,16.0 +/− 0.4%
same,% remaining,human hepatocytes; time 60 min,4.8 +/− 0.1%
same,% remaining,human hepatocytes; time 120 min,2.4 +/− 1.3%
same,t½ Rabbit AH,[1],>1 h
same,t½ Rabbit VH,[2],>1 h
same,AUClast (intravenous exposure),[3]; intravenous 0.1 mg/kg,4.82 ± 0.276 ng·h/mL
same,clearance,[3]; intravenous 0.1 mg/kg,257 mL/min/kg
same,volume of distribution,[3]; intravenous 0.1 mg/kg,100 L/kg
same,Cmax,"[3]; intravenous 0.1 mg/kg, mouse plasma",16.3 ng/mL
same,metabolism and excretion in words,"[3]; mice, intravenous and oral",rapidly metabolized and excreted from the body very rapidly
same,AUClast,[3]; oral 1 mg/kg,6.20 ± 5.50 ng·h/mL
same,Cmax,[3]; oral 1 mg/kg,22.4 ± 22 ng/mL
same,percent oral bioavailability,[3]; oral 1 mg/kg vs intravenous 0.1 mg/kg,12.9%
"COC(=O)c1ccc(C(=O)Nc2cccc(-c3cc(C(=O)Nc4ccncc4F)ccc3CN)c2)cc1 [Compound 7, methyl 4-({3-[2-(aminomethyl)-5-[(3-fluoropyridin-4-yl)carbamoyl]phenyl]phenyl}carbamoyl)benzoate]",half-life at 1 μM,[1],> 1 h
same,half-life at 1 μM,[2],> 1 h
"COC(=O)c1ccc(C(=O)Nc2cccc(-c3cc(C(=O)Nc4ccncc4F)ccc3CN)c2)nc1 [Compound 8, methyl 6-({3-[2-(aminomethyl)-5-[(3-fluoropyridin-4-yl)carbamoyl]phenyl]phenyl}carbamoyl)pyridine-3-carboxylate]",half-life at 1 μM,[1],> 1 h
same,half-life at 1 μM,[2],> 1 h
"COC(=O)c1ccc(NC(=O)c2cccc(-c3cc(C(=O)Nc4ccncc4F)ccc3CN)c2)c(F)c1 [Compound 2, methyl 4-({3-[2-(aminomethyl)-5-[(3-fluoropyridin-4-yl)carbamoyl]phenyl]phenyl}amido)-3-fluorobenzoate]",t½ Rabbit AH,[1],>1 h
same,t½ Rabbit VH,[2],>1 h
"CCCOC(=O)c1ccc(NC(=O)c2cccc(-c3cc(C(=O)Nc4ccncc4F)ccc3CN)c2)cc1C [Compound 6, propyl 4-({3-[2-(aminomethyl)-5-[(3-fluoropyridin-4-yl)carbamoyl]phenyl]phenyl}amido)-2-methylbenzoate]",t½ Rabbit AH,[1],>1 h
same,t½ Rabbit VH,[2],>1 h
"NCc1ccc(C(=O)Nc2ccncc2F)cc1-c1cccc(C(=O)Nc2ccc(C(=O)OCC3CCCO3)cc2)c1 (stereo not drawn) [Compound 10, oxolan-2-ylmethyl 4-({3-[2-(aminomethyl)-5-[(3-fluoropyridin-4-yl)carbamoyl]phenyl]phenyl}amido)benzoate]",t½ Rabbit AH,[1],>1 h
same,t½ Rabbit VH,[2],>1 h
"COC(=O)c1ccc(NC(=O)c2cccc(-c3cc(C(=O)Nc4ccncc4F)ccc3CN)c2)cc1F [Compound 3, methyl 4-({3-[2-(aminomethyl)-5-[(3-fluoropyridin-4-yl)carbamoyl]phenyl]phenyl}amido)-2-fluorobenzoate]",t½ Rabbit AH,[1],>1 h
same,t½ Rabbit VH,[2],>1 h
"CCCOC(=O)c1ccc(NC(=O)c2cccc(-c3cc(C(=O)Nc4ccncc4F)ccc3CN)c2)c(F)c1 [Compound 4, propyl 4-({3-[2-(aminomethyl)-5-[(3-fluoropyridin-4-yl)carbamoyl]phenyl]phenyl}amido)-3-fluorobenzoate]",t½ Rabbit AH,[1],>1 h
same,t½ Rabbit VH,[2],>1 h
"COCCOC(=O)c1ccc(NC(=O)c2cccc(-c3cc(C(=O)Nc4ccncc4F)ccc3CN)c2)cc1 [Compound 9, 2-methoxyethyl 4-({3-[2-(aminomethyl)-5-[(3-fluoropyridin-4-yl)carbamoyl]phenyl]phenyl}amido)benzoate]",t½ Rabbit AH,[1],>1 h
same,t½ Rabbit VH,[2],>1 h
"COC(=O)c1ccc(NC(=O)c2cccc(-c3cc(C(=O)Nc4ccncc4F)ccc3CN)c2)cc1C [Compound 5, methyl 4-({3-[2-(aminomethyl)-5-[(3-fluoropyridin-4-yl)carbamoyl]phenyl]phenyl}amido)-2-methylbenzoate]",t½ Rabbit AH,[1],>1 h
same,t½ Rabbit VH,[2],>1 h
